{"source": "patent US9615577B2", "about": "“Herbicidally active cyclic dione compounds, or derivatives therefor, substituted by a phenyl which has an alkynyl-containing substituent” (Syngenta Limited, priority 2012, dated 2017)", "test_in_all_cases": "Biological Example 3 glasshouse assay for herbicidal activity, using various adjuvant systems, post-emergence", "assay_type_in_all_cases": "in vivo", "key": {"[1]": {"system": "Eleusine indica (ELEIN)", "conditions": "8 g/ha, 14 DAA, adjuvant system per compound", "experimental": "(§1) Post-emergence foliar spray application, 200 L/ha, usually one or two replicates for the weeds (depending on application rate), and two replicates for soybean.\n(§2) Standard warm conditions (tropical), in glasshouse. Specifically, the glasshouse bay conditions are 24° C./18° C. day/night; 16/8 hours light/dark; 65% humidity.\n(§3) The herbicidal application takes place at the following growth stages for plants which include inter alia one or more of the following plants (usually the herbicidal application takes place on at least the following six plants: DIGSA, ELEIN, SETFA, GLXMA Nikko, and GLXMA TMG133, and either BRADC or BRAPP):\nEleusine indica (ELEIN)—growth stage 12 or 13\n(§4) Each test Compound is applied with one of the following adjuvant systems (all percentages are final concentrations in the aqueous spray mixture):\n(§5) Adjuvant system 1: 0.5% v/v Adigor™ *, 1.0% v/v AMS (ammonium sulphate) and 12.5% v/v IPA (isopropyl alcohol).\n(§6) Adjuvant system 2: 0.5% v/v Adigor™ * and 12.5% v/v IPA (isopropyl alcohol).\n(§7) Adjuvant system 3: 0.5% v/v Hexamoll™ DINCH **, 1.0% v/v AMS (ammonium sulphate) and 12.5% v/v IPA (isopropyl alcohol).\n(§8) Seeds of the weed plants, typically including inter alia [either Brachiaria decumbens (BRADC) or Brachiaria platyphylla (BRAPP)], Digitaria sanguinalis (DIGSA), Eleusine indica (ELEIN), Setaria faberi (SETFA) are sown in seed trays (troughs) containing clay loam soil (pH 7.0, 2.2% organic matter, “Trough Mix A”); and soybean seed is sown in pots containing the same soil with 3 soybean seedlings per pot. The plants are sprayed with the test herbicide when they reach the growth stages mentioned above.\n(§9) The test herbicidal solutions are prepared by mixing the appropriate aliquots of the test substance(s) and the adjuvant system indicated above *** in deionised water to give the desired treatment concentration. […]\n(§10) A visual assessment of the % herbicidal damage is made 7 and 14 Days After herbicide Application (DAA) (or, in a minority of cases, 7 and 15 DAA), and the results are recorded as % visual herbicidal damage where 0%=no damage to plants and 100%=plant totally killed. […]"}, "[2]": {"system": "Glycine max (GLXMA, soybean) cultivar “TMG133”", "conditions": "120 g/ha, 14 or 15 DAA, adjuvant system per compound", "experimental": "as §1, §2, §3\nGlycine max (GLXMA, soybean) cultivar “TMG133”—which is Roundup Ready™glyphosate-tolerant soybean cultivar TMG133 (typically available from Monsanto in Brazil)—growth stage: 1st trifoliate.\nEach test Compound is applied with one of the following adjuvant systems (all percentages are final concentrations in the aqueous spray mixture): […]\nas §10\nGlycine max (GLXMA, soybean) cultivar “TMG133” is Roundup Ready™ glyphosate-tolerant soybean cultivar TMG133, and is typically available from Monsanto in Brazil."}, "[3]": {"system": "Glycine max (GLXMA, soybean) cultivar “Nikko”", "conditions": "120 g/ha, 14 or 15 DAA, adjuvant system per compound", "experimental": "as §1, §2, §3\nGlycine max (GLXMA, soybean) cultivar “Nikko”—growth stage: 1st trifoliate\nas §4, §5\nAdjuvant system 2: 0.5% v/v Adigor™ * and 12.5% v/v IPA (isopropyl alcohol). […]\nas §10"}, "[4]": {"system": "Setaria faberi (SETFA)", "conditions": "8 g/ha, 14 DAA, 0.5% v/v Adigor + 1.0% v/v AMS + 12.5% v/v IPA", "experimental": "as §1, §2, §3\nSetaria faberi (SETFA)—growth stage 12 or 13\nas §4, §5, §6, §7, §8, §9, §10"}, "[5]": {"system": "Digitaria sanguinalis (DIGSA)", "conditions": "8 g/ha, 14 DAA, 0.5% v/v Adigor + 1.0% v/v AMS + 12.5% v/v IPA", "experimental": "as §1, §2, §3\nDigitaria sanguinalis (DIGSA)—growth stage 12 or 13\nas §4, §5, §6, §7\nSeeds of the weed plants, typically including inter alia [either Brachiaria decumbens (BRADC) or Brachiaria platyphylla (BRAPP)], Digitaria sanguinalis (DIGSA), Eleusine indica (ELEIN), Setaria faberi (SETFA) are sown in seed trays (troughs) containing clay loam soil (pH 7.0, 2.2% organic matter, “Trough Mix A”); and soybean seed is sown in pots containing the same soil with 3 soybean seedlings per pot. The plants are sprayed with the test herbicide when they reach the growth stages mentioned above. […]\nas §10"}}}
{"compound": "CC#Cc1cc(C)c(C2C(=O)C3CCC(C3)C2=O)c(C)c1", "note": "(centres unmarked) [Compound A-5]", "values": [{"measurement": "percentage control of Eleusine indica (ELEIN)", "setting": "[1]", "value": 45, "unit": "%"}]}
{"compound": "CC#Cc1cc(C)c(C2C(=O)CC(CCSC)CC2=O)c(C)c1", "note": "(centres unmarked) [Compound A-21, 2-(2,6-Dimethyl-4-prop-1-ynyl-phenyl)-5-(2-methylsulfanyl-ethyl)cyclohexane-1,3-dione]", "values": [{"measurement": "percentage phytotoxicities on Glycine max (GLXMA, soybean) cultivar “TMG133”", "setting": "[2]", "value": 85, "unit": "%"}, {"measurement": "percentage phytotoxicities on Glycine max (GLXMA, soybean) cultivar “Nikko”", "setting": "[3]", "value": 85, "unit": "%"}]}
{"compound": "CC#Cc1cc(Cl)c(C2C(=O)CC3(CCOCC3)CC2=O)c(OC)c1", "note": "[Compound A-20, 9-(2-Chloro-6-methoxy-4-prop-1-ynyl-phenyl)-3-oxa-spiro[5.5]undecane-8,10-dione]", "values": [{"measurement": "percentage control of Setaria faberi (SETFA)", "setting": "[4]", "value": 98, "unit": "%"}, {"measurement": "percentage control of Eleusine indica (ELEIN)", "setting": "[1]", "value": 95, "unit": "%"}, {"measurement": "percentage phytotoxicities on Glycine max (GLXMA, soybean) cultivar “TMG133”", "setting": "[2]", "value": 85, "unit": "%"}, {"measurement": "percentage control of Digitaria sanguinalis (DIGSA)", "setting": "[5]", "value": 100, "unit": "%"}, {"measurement": "percentage phytotoxicities on Glycine max (GLXMA, soybean) cultivar “Nikko”", "setting": "[3]", "value": 85, "unit": "%"}]}
